Values after ≈ are worked out from the molar mass of the structure shown. Read-outs that look alike come from different tables or passages of the source.
System: clinical isolates of M. tuberculosis
Assay: microbe, parasite or virus in culture
Type: cell-based
Details: Mycobacterium tuberculosis

COC(=O)/C=C/C(=O)c1ccc(OC)cc1 [IMB-YH-8]
MIC (clinical isolate 3303, resistant to INH, STR): 0.5 µg/mL (≈ 2.27 µM) | MIC (clinical isolate 4201, resistant to RIF): 0.25 µg/mL (≈ 1.14 µM) | MIC (clinical isolate 5112, resistant to INH, RIF, STR, EMB): 0.25 µg/mL (≈ 1.14 µM) | MIC (clinical isolate 5116, resistant to INH, RIF): 0.25 µg/mL (≈ 1.14 µM) | MIC (clinical isolate 5120, resistant to INH, STR, EMB): 0.5 µg/mL (≈ 2.27 µM) | MIC (clinical isolate 6133, resistant to INH, RIF): 0.25 µg/mL (≈ 1.14 µM) | MIC (clinical isolate 7153, resistant to INH, RIF): 1 µg/mL (≈ 4.54 µM) | MIC (clinical isolate 11277, resistant to INH, RIF, STR): 0.5 µg/mL (≈ 2.27 µM) | MIC (clinical isolate 12179, resistant to INH, RIF): 0.25 µg/mL (≈ 1.14 µM) | MIC (clinical isolate 12251, resistant to INH, RIF): 0.5 µg/mL (≈ 2.27 µM) | MIC (clinical isolate 16559, resistant to STR, OFX): 0.5 µg/mL (≈ 2.27 µM) | MIC (clinical isolate 20161, resistant to INH, RIF): 0.5 µg/mL (≈ 2.27 µM) | MIC (clinical isolate 23120, resistant to INH, RIF, STR): 0.25 µg/mL (≈ 1.14 µM) | MIC (clinical isolate 23443, resistant to RIF): 0.5 µg/mL (≈ 2.27 µM) | MIC (read-out: MICs for drug-resistant isolates): 0.25 to 1 µg/mL (≈ 1.14 to 4.54 µM)

— paper PMC5506005, “A novel protein kinase inhibitor IMB-YH-8 with anti-tuberculosis activity” (Scientific Reports, 2017)
